The values that follow come from patent publication US8067583B2, “Method for synthesizing furanosteroids” (Trustees of Dartmouth College, priority 2006, dated 2011).

One series has as its target PI3-kinase. Particulars: read-out: IC50, inhibitor of PI3-kinase; cited from earlier work.
Series [1] can be described thus: storage stability of isolated isomers. The class given is physicochemical. The procedure:
A solution of 50.0 mg (0.136 mmol, 1.0 eq) of aldehyde 18 in 13.6 mL of dry CH2Cl2 was stirred in a 25 mL round bottom flask at room temperature under argon. To this solution was slowly added 271 μL (1.0 M in CH2Cl2, 0.271 mmol, 2.0 eq) of TiCl4. […] The solution was then diluted with CH2Cl2 and washed with H2O. The aqueous portion was then extracted three times with CH2Cl2. The combined organic fractions were then dried over MgSO4 and concentrated. Purification via silica gel chromatography (hexane/EtOAc) gave 20.4 mg (59%) of the syn-isomer 19-Syn and 5.4 mg (16%) of the anti-isomer 19-Anti as unstable brown oils. […] The decomposition was of a general nature and none of the stable, known retro-aldol product was observed.

Series [2] has as its target mammalian Polo-like kinase (Homo sapiens, UniProt P53350). The settings on record: cited from earlier work.
A further series has as its target PI3K-Beta (Homo sapiens, UniProt P42338). Put plainly: activity against PI3K-Beta. The class given is biochemical. An excerpt: Novel furanosteroids produced according to the present method can be screened for biological activity using any conventional method. For example, PI3 kinase assays are disclosed by Yuan, et al. ((2005) Bioconjugate Chem, 16 (3): 669-675) and Fruman, et al. ((1999) Science 283:393-7). Assays for monitoring the assembly of peptide-MHC class II complexes (Song, et al. (1997) International Immunology 9:1709-1722) and mast cell exocytosis (Marquardt, et al. (1996) J. Immunol. 156:1942-1945) are known in the art as are assays for monitoring cell proliferation.

Chain of mammalian Polo-like kinase (P53350 whole entry): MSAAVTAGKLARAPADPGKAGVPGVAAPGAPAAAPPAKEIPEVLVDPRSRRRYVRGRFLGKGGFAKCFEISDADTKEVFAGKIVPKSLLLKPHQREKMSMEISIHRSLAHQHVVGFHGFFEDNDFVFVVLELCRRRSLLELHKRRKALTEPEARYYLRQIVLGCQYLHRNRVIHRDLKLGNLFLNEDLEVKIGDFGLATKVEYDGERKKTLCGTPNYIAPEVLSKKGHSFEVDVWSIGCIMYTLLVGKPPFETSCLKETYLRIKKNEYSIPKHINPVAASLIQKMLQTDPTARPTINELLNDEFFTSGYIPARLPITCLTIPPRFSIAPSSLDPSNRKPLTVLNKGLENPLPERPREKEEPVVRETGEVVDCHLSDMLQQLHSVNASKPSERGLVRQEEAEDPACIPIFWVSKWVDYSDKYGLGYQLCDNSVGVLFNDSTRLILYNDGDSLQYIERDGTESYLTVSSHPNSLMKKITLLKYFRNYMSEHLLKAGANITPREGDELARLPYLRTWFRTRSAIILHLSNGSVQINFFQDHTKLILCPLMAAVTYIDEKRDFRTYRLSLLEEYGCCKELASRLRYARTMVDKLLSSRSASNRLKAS
Chain of PI3K-Beta (P42338 whole entry, species assumed): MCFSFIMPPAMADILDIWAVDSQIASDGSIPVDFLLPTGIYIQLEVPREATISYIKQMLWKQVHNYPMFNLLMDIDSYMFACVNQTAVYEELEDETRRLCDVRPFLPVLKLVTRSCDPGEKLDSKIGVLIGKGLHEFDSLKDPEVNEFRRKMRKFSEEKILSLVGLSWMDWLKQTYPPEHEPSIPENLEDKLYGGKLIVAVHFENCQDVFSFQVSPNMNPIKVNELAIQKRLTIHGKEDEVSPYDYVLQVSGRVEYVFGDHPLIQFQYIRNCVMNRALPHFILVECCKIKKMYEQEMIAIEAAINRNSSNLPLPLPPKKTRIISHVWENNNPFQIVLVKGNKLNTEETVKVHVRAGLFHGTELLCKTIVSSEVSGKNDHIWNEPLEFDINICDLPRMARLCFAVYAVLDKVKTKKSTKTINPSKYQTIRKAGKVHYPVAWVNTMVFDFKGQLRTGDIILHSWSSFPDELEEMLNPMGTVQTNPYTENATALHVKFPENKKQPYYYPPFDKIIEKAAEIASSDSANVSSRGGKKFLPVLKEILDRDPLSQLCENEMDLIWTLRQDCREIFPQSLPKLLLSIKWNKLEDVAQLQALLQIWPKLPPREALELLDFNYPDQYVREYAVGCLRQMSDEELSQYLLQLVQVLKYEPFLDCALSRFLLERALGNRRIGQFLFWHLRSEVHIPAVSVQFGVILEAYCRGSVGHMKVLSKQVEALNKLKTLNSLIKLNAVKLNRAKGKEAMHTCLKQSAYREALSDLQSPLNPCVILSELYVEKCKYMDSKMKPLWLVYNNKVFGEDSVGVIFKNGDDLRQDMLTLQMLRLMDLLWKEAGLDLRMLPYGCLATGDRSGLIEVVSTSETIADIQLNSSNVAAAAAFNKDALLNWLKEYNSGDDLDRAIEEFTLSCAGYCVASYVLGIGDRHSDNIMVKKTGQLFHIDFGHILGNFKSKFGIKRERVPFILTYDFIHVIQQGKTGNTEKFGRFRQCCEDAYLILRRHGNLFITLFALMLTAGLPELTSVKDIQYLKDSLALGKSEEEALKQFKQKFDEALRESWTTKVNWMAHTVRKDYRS
Chain of PI3K-Beta (P27986 whole entry partner, species assumed): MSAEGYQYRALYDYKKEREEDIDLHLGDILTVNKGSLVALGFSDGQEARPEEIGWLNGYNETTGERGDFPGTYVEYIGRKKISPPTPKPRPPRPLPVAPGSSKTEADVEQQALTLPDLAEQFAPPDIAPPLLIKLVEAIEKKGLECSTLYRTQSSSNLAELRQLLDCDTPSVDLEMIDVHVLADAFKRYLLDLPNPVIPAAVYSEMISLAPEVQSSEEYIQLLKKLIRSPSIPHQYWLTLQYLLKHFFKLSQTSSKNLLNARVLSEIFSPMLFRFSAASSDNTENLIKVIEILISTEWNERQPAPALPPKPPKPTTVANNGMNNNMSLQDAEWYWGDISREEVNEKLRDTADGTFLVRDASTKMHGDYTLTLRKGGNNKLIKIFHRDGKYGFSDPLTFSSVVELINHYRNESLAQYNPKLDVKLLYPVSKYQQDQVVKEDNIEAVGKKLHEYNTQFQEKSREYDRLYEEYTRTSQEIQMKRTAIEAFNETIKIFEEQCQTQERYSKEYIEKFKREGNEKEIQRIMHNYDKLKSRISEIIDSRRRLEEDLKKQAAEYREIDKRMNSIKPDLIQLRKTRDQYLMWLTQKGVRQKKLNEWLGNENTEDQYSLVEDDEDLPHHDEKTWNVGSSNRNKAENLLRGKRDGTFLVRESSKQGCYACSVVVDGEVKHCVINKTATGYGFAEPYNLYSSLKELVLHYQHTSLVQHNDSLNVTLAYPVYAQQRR

In general, IC50 refers to the point on the concentration scale where inhibition reaches its midpoint. In the case of `COC[C@H]1OC(=O)c2coc3c2[C@@]1(C)C1=C(C3=O)[C@@H]2CC[C@H](O)[C@@]2(C)C[C@H]1OC(C)=O` [17β-OH wortmannin], the IC50 at PI3-kinase was 500 pM.
Regarding `CC12c3ccccc3C(=O)c3occ(c31)CC[C@H]2O` (stereo in doubt) [Compound 19-Syn, 1-Hydroxy-10b-methyl-1,2,3,10b-tetrahydro-5-oxa-acephenanthrylen-6-one], in series [1] (refrigerator), the “stability in a refrigerator” value is reported as “stable in a refrigerator for several weeks”. In series [1] (room temperature, prolonged periods, isolated brown oils), the “stability at room temperature” value is reported as “Neither isomer was stable at room temperature for prolonged periods”.
As to `COC[C@H]1OC(=O)c2coc3c2C1(C)C1=C(C3=O)[C@@H]2CCC(=O)C2(C)C[C@H]1OC(C)=O` (some centres unmarked) [wortmannin], the “inhibition of mammalian Polo-like kinase” value in series [2] was “inhibit”.
On to `C[C@]12COC(=O)c3coc(c31)C(=O)c1ccccc12` [Compound 47], for which, on PI3K-Beta, the “activity against PI3K-Beta” value is recorded as “sub-micromolar”.
